Experimental data reported in patent US11434242B2, “Dopamine-b-hydroxylase inhibitors” (BIAL-PORTELA & Cª, S.A., priority 2017, dated 2022).

Biological target: T1, Dopamine beta hydroxylase (Homo sapiens, UniProt P09172)
T1 construct: 125 μl of plasma; tissue Instituto Português do Sangue Transplantação; host or cells: human plasma from healthy donors
T1 sequence (P09172 40-617 limits assumed): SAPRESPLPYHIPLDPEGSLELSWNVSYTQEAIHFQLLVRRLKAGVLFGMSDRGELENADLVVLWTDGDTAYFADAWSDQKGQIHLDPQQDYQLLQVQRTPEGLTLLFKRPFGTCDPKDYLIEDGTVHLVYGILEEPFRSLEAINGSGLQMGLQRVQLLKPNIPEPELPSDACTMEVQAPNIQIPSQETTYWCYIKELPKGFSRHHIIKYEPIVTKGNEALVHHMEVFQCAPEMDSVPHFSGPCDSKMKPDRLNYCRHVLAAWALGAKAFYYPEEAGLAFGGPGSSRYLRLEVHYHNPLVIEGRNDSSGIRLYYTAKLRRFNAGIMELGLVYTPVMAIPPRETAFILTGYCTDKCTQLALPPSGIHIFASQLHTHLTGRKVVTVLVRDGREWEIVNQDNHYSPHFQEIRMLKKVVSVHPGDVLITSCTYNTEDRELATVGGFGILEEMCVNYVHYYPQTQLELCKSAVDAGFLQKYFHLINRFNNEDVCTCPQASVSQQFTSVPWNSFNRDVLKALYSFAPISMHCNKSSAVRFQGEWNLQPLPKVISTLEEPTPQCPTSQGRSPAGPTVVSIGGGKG
Experiment: Dopamine beta hydroxylase activity in human plasma
Type: biochemical
Conditions: for Plasma (0.1 μM), activity in % of control: inhibitor 0.1 μM; for Plasma (1 μM), activity in % of control: inhibitor 1 μM; for Plasma (0.01 μM), activity in % of control: inhibitor 0.01 μM
Protocol: Furthermore, the ability of a compound to inhibit DβH activity may be assessed in human plasma using the following assay. […]. Dopamine beta hydroxylase activity in human plasma was measured by the method of Nagatsu and Udenfriend (Nagatsu, T. and Udenfriend, S. “Photometric assay of dopamine-μ-hydroxylase activity in human blood.” Clin. Chem. 18(9) 980-983, 1972) with minor modifications. Catalase, N-ethylmaleimide, tyramine, disodium fumarate, pargyline, sodium acetate, ascorbic acid, copper sulfate and octopamine were obtained from Sigma Chemical Co., St. Louis, Mo. 63178. Human plasma samples were obtained from healthy donors (Instituto Português do Sangue Transplantação, Centro Sangue Transplantação, Porto, Portugal). From date of collection, plasma was stored at −80° C. until use. Test compounds were initially prepared in dimethyl sulfoxide at a concentration of 10 mM and diluted in dimethyl sulfoxide to the required concentrations. Test compounds were further diluted in ultrapure water to a concentration 20-fold to that of the final concentration to be tested. Final concentrations of test compounds were 10, 100 and 1000 nM. The various reagents used to make up the incubation buffer were premixed and consisted of the following components: sodium acetate buffer (1 M, pH 5.0, 18 ml), sodium fumarate (0.2 M, 4.5 ml), ascorbic acid (0.2 M, 4.5 ml, freshly prepared), pargyline (20 mM, freshly prepared, 4.5 ml), N-ethylmaleimide (0.2 M, 4.5 ml), catalase (10 000 U/ml, 9 ml), copper sulfate (20 μM, 4.5 ml) and 4.5 ultrapure water. The standard incubation mixture (total volume, 950 μl) contained: 50 μL of compound or vehicle (dimethyl sulfoxide 2%); 700 μL of incubation buffer; 125 μl of plasma (or saline for blank reaction or standard curve); 75 μl of saline. The reaction mixture was placed in water bath, shaking at 37° C. and pre-incubated for 10 minutes. Tyramine (0.5 M) was added and incubation proceeded for 45 minutes. The reaction contents were exposed to air. A sample of enzyme preparation (with 125 μl of plasma) that had been added perchloric acid 2 M at the end of the pre-incubation period was used as blank. A blank for each of the tested compounds was used. For octopamine standard curve, perchloric acid 2 M was replaced by increasing concentrations of octopamine prepared in perchloric acid 2 M (0.5, 1, 2.5, 5, 7.5, 10, 15, 20 μg/ml, final concentration). The incubation was stopped by adding 200 μl of 2 M molar perchloric acid, and the mixture was centrifuged at 9000 g for 5 min. The supernatant fluid (800 μL) was transferred to a column (SPE cartridge ISOLUTE SCX-3, 100 mg) and centrifuged at 150 g for 2 min. The column was washed two more times with 0.5 ml of ultrapure water by centrifuging at 150 g for 2 min. The adsorbed octopamine was eluted twice with 0.3 ml of 4 M ammonium hydroxide by centrifuging at 150 g for 2 min. Octopamine in the eluate was then converted to p-hydroxybenzaldehyde by adding 200 μl of sodium periodate (2%) and incubating for 6 min. Excess periodate was than reduced by adding 200 μl of sodium metabisulfite (10%). Absorbance was measured at […] in a 96-well plate by use of a SpectraMAX plus 384 (Molecular Devices) with software SOFTmax® PRO Software 5.3 spectrophotometer. Absorbance was linear with octopamine concentration from 0.5 to 20 μg/ml. Dopamine beta hydroxylase activity is determined as nmol of octopamine formed/ml of plasma/hour and effect of compounds is presented as % control.
Results are reported in the table below as activity in % of control at the inhibitor concentration tested.

Structure (SMILES) | Plasma (0.1 μM), activity in % of control | Plasma (1 μM), activity in % of control | Plasma (0.01 μM), activity in % of control
N#CCNC(=O)Cc1[nH]c(=S)n2c1C[C@H](c1c(F)c(F)cc(F)c1F)C2 [Example 27, (R)—N-(cyanomethyl)-2-(6-(2,3,5,6-tetrafluorophenyl)-3-thioxo-2,5,6,7-tetrahydro-3H-pyrrolo[1,2-c]imidazol-1-yl)acetamide] | 51.6 % of control | 7.6 % of control | 
O=C(Cc1[nH]c(=S)n2c1C[C@H](c1c(F)c(F)cc(F)c1F)C2)N[C@H]1CC[C@H](O)CC1 [Example 28, N-((1r,4R)-4-hydroxycyclohexyl)-2-((R)-6-(2,3,5,6-tetrafluorophenyl)-3-thioxo-2,5,6,7-tetrahydro-3H-pyrrolo[1,2-c]imidazol-1-yl)acetamide] | 33.8 % of control |  | 78.1 % of control
O=C(Cc1[nH]c(=S)n2c1C[C@H](c1c(F)c(F)cc(F)c1F)C2)NC1CCCCC1O (stereo partly drawn) [Example 29, N-(2-hydroxycyclohexyl)-2-((R)-6-(2,3,5,6-tetrafluorophenyl)-3-thioxo-2,5,6,7-tetrahydro-3H-pyrrolo[1,2-c]imidazol-1-yl)acetamide] | 29.1 % of control |  | 72.5 % of control
CN(C)C(=O)Cc1[nH]c(=S)n2c1C[C@H](c1c(F)c(F)cc(F)c1F)C2 [Example 30, (R)—N,N-dimethyl-2-(6-(2,3,5,6-tetrafluorophenyl)-3-thioxo-2,5,6,7-tetrahydro-3H-pyrrolo[1,2-c]imidazol-1-yl)acetamide] | 73.2 % of control |  | 92.0 % of control
N[C@@H](CNC(=O)Cc1[nH]c(=S)n2c1C[C@H](c1c(F)c(F)cc(F)c1F)C2)C(=O)O [Example 31, (S)-2-amino-3-(2-((R)-6-(2,3,5,6-tetrafluorophenyl)-3-thioxo-3,5,6,7-tetrahydro-2H-pyrrolo[1,2-c]imidazol-1-yl)acetamido)propanoic acid] | 67.7 % of control | 16.7 % of control | 
O=C(Cc1[nH]c(=S)n2c1C[C@H](c1c(F)c(F)cc(F)c1F)C2)NC1CCCC1 [Example 32] | 46.2 % of control | 9.7 % of control | 
O=C(Cc1[nH]c(=S)n2c1C[C@@H](c1c(F)ccc(Br)c1F)C2)NC1CCCC1=O (stereo partly drawn) [Example 34, 2-((S)-6-(3-bromo-2,6-difluorophenyl)-3-thioxo-3,5,6,7-tetrahydro-2H-pyrrolo[1,2-c]imidazol-1-yl)-N-(2-oxocyclopentyl)acetamide] | 10.4 % of control | 0 % of control | 
CCOC(=O)Cc1[nH]c(=S)n2c1C[C@@H](c1c(F)ccc(Br)c1F)C2 [Example 59, ethyl (S)-2-(6-(3-bromo-2,6-difluorophenyl)-3-thioxo-2,5,6,7-tetrahydro-3H-pyrrolo[1,2-c]imidazol-1-yl)acetate] | 20.8 % of control | 4.1 % of control | 
CCOC(=O)Cc1[nH]c(=S)n2c1C[C@H](c1c(F)ccc(Br)c1F)C2 [Example 60, Ethyl (R)-2-(6-(3-bromo-2,6-difluorophenyl)-3-thioxo-2,5,6,7-tetrahydro-3H-pyrrolo[1,2-c]imidazol-1-yl)acetate] | 68.9 % of control | 14.0 % of control | 
CCOC(=O)Cc1[nH]c(=S)n2c1C[C@H](c1cc(F)ccc1F)C2 [Example 61, Ethyl (R)-2-(6-(2,5-difluorophenyl)-3-thioxo-2,5,6,7-tetrahydro-3H-pyrrolo[1,2-c]imidazol-1-yl)acetate] | 99.1 % of control | 47.9 % of control | 
CCOC(=O)Cc1[nH]c(=S)n2c1C[C@@H](c1cc(Br)ccc1F)C2 [Example 62, Ethyl (S)-2-(6-(5-bromo-2-fluorophenyl)-3-thioxo-2,5,6,7-tetrahydro-3H-pyrrolo[1,2-c]imidazol-1-yl)acetate] | 66.4 % of control | 10.9 % of control | 
CCOC(=O)Cc1[nH]c(=S)n2c1C[C@H](c1c(F)c(F)cc(F)c1F)C2 [Example 63, Ethyl (R)-2-(6-(2,3,5,6-tetrafluorophenyl)-3-thioxo-2,5,6,7-tetrahydro-3H-pyrrolo[1,2-c]imidazol-1-yl)acetate] | 58.3 % of control | 11.9 % of control | 
CCOC(=O)Cc1[nH]c(=S)n2c1C[C@H](c1cc(Cl)ccc1F)C2 [Example 64, Ethyl (R)-2-(6-(5-chloro-2-fluorophenyl)-3-thioxo-2,5,6,7-tetrahydro-3H-pyrrolo[1,2-c]imidazol-1-yl)acetate] | 88.4 % of control | 47.2 % of control | 
CCOC(=O)Cc1[nH]c(=S)n2c1C[C@H](c1c(F)cccc1F)C2 [Example 65, Ethyl (R)-2-(6-(2,6-difluorophenyl)-3-thioxo-2,5,6,7-tetrahydro-3H-pyrrolo[1,2-c]imidazol-1-yl)acetate] | 64.5 % of control | 12.6 % of control | 
CC(C)NC(=O)Cc1[nH]c(=S)n2c1[C@@H]1C[C@]1(c1cc(Cl)ccc1F)C2 [Example 67, 2-((5aS,6aR)-5a-(5-chloro-2-fluorophenyl)-3-thioxo-2,3,5,5a,6,6a-hexahydrocyclopropa[3,4]pyrrolo[1,2-c]imidazol-1-yl)-N-isopropylacetamide] | 76.1 % of control | 13.2 % of control | 
CNC(=O)Cc1[nH]c(=S)n2c1[C@@H]1C[C@]1(c1cc(F)cc(Cl)c1)C2 [Example 68, 2-((5aS,6aR)-5a-(3-chloro-5-fluorophenyl)-3-thioxo-2,3,5,5a,6,6a-hexahydrocyclopropa[3,4]pyrrolo[1,2-c]imidazol-1-yl)-N-methylacetamide] | 55.6 % of control | 13.5 % of control | 
